# Measured values published in US20250296938A1, “Compounds that Interact with the Ras Superfamily for the Treatment of Cancers, Inflammatory Diseases, Rasopathies, and Fibrotic Disease” (SHY Therapeutics, LLC, priority 2018, published 2025).
# Read-outs that look alike come from different tables or passages of the source.
# How the values were obtained:
# Test in all cases: Ras GTP binding domain inhibition assay (Cy3-GTP/Cy5-GTP competition)
# KRas G12C mutant = test system: KRas G12C mutant; set-up: species or system human; conditions: 20 μM
# Description: (§1) The following method was developed as specific assay for the following proteins: KRas wild type, KRas Q61H mutant, KRas G12C mutant, KRas G12D mutant, HRas wild type, Rac-1, and Rho-A.
# (§2) • 25 mM Tris-HCl, pH 7.4 • 27 mM KCl • 137 mM NaCl • 1 mM MgCl2 • 1 mM DTT
# (§3) • 50 mM Tris-HCl, pH 7.0 • 1 mM MgCl2 • 1 mM DTT
# (§4) The small GTPases proteins: KRas wild type. KRas Q61H mutant, KRas G12C mutant, KRas G12D mutants, HRas wild type, Rac-1, and Rho-A were expressed as His-tagged proteins. In addition, the Guanosine nucleotide Exchange Factor (GEF) Sos protein (residues 556-1049) was expressed as a His-tagged protein. In cells, the guanine nucleotide exchange factor Sos protein promotes activation of Ras proteins by stimulating an exchange of GDP for GTP. The inclusion of Sos to the Ras GTP binding domain inhibition assay may be considered as an alternative representation of physiological cellular conditions for evaluating the inhibitory activity of some of the tested small molecules.
# (§5) For the assay, all purified small GTPases proteins were diluted in Buffer-I or Buffer-II to a final concentration of 10-30 μg/mL. 200 μL of each diluted protein was added to a nickel-coated 96-well plate and incubated overnight at 4° C. Then the protein solution was discarded and 200 μL of Buffer-I or Buffer-II was added to each well in the presence of 1% DMSO. Compounds to be tested were added to the protein-coated wells at final concentration of 20 μM, and incubated for 3 hours at room temperature with and without […] of Sos added to the final hour of the incubation. When performing IC50 measurements a serial dilution of all tested concentrations was added. Then Cy3-GTP or Cy5-GTP was added to each well to a final concentration of 100 nM. The labeled GTP was incubated for 45 minutes at room temperature. Following GTP incubation, wells were washed 3× in Buffer-I or Buffer-II and 200 μL of Buffer-I or Buffer-II was added to each well. Following washes, the amount of bound labeled-GTP was measured using a SpectraMax M3 (Molecular Devices).
# KRas Q61H mutant = test system: KRas Q61H mutant; set-up: species or system human; conditions: 20 μM
# Description: as §1, §2, §3, §4, §5
# KRas wild type = test system: KRas wild type; set-up: species or system human; conditions: 20 μM; for KRas wild type: % inh.: without SOS; for KRas wild type % inh.: without SOS (Table 7A)
# Description: as §1, §2, §3, §4, §5
# KRas G12D mutant = target: T1, KRas G12D mutant (Homo sapiens, UniProt P01116, G12D); conditions: 20 μM
# T1 construct: fused on or other part: His tag, used for capture on nickel-coated plates
# Description: as §1, §2, §3, §4, §5
# [1] = with SOS, read-out: KRas G-12D mutant + SOS: % inh.
# [2] = without SOS, read-out: KRas G12D mutant: % inh.
# [3] = with SOS (Table 7A), read-out: KRas G12D mutant + SOS: % inh.
# [4] = without SOS (Table 7A), read-out: KRas G12D mutant: % inh.
Structure (SMILES),KRas G12C mutant + SOS: % inh. (KRas G12C mutant; with SOS),KRas G12C mutant: % inh. (KRas G12C mutant; without SOS),KRas Q61H mutant + SOS: % inh. (KRas Q61H mutant; with SOS),KRas Q61H mutant: % inh. (KRas Q61H mutant; without SOS),KRas wild type + SOS: % inh. (KRas wild type; with SOS),KRas wild type: % inh. (KRas wild type),inhibition at 20 µM (KRas G12D mutant; [1]),inhibition at 20 µM (KRas G12D mutant; [2]),KRas G12C mutant + SOS: % inh. (KRas G12C mutant; with SOS (Table 7A)),KRas G12C mutant: % inh. (KRas G12C mutant; without SOS (Table 7A)),KRas Q61H mutant + SOS: % inh. (KRas Q61H mutant; with SOS (Table 7A)),KRas Q61H mutant: % inh. (KRas Q61H mutant; without SOS (Table 7A)),KRas wild type + SOS: % inh. (KRas wild type; with SOS (Table 7A)),KRas wild type % inh. (KRas wild type),inhibition at 20 µM (KRas G12D mutant; [3]),inhibition at 20 µM (KRas G12D mutant; [4])
COC1CCN(c2nc(-c3nccn3C)nc3sc(-c4ccc(CO)cc4)c(-c4ccccc4)c23)C1.Cl (stereo not shown),D (76-100% inhibition),0 (0% inhibition),D (76-100% inhibition),0 (0% inhibition),D (76-100% inhibition),0 (0% inhibition),51 to 75%,1 to 25%,–,–,–,–,–,–,–,–
COC1CCN(c2nc(-c3nccn3C)nc3sc(-c4ccnc(N(C)C)c4)c(-c4ccccc4)c23)C1.Cl (stereo not shown),D (76-100% inhibition),A (1-25% inhibition),D (76-100% inhibition),D (76-100% inhibition),D (76-100% inhibition),C (51-75% inhibition),51 to 75%,51 to 75%,–,–,–,–,–,–,–,–
COC(=O)c1nc(C2NCCN2C)nc(O)c1O (stereo not shown),C (51-75% inhibition),D (76-100% inhibition),C (51-75% inhibition),C (51-75% inhibition),B (26-50% inhibition),C (51-75% inhibition),26 to 50%,51 to 75%,–,–,–,–,–,–,–,–
COC1CCN(c2nc(-c3nccn3C)nc3sc(-c4cnn(C)c4)c(-c4ccccc4)c23)C1.Cl (stereo not shown),D (76-100% inhibition),C (51-75% inhibition),D (76-100% inhibition),B (26-50% inhibition),D (76-100% inhibition),B (26-50% inhibition),76 to 100%,26 to 50%,–,–,–,–,–,–,–,–
COC1CCN(c2nc(-c3nccn3C)nc3sc(-c4ccnn4C)c(-c4ccccc4)c23)C1.Cl (stereo not shown),C (51-75% inhibition),C (51-75% inhibition),C (51-75% inhibition),B (26-50% inhibition),C (51-75% inhibition),B (26-50% inhibition),51 to 75%,51 to 75%,–,–,–,–,–,–,–,–
CO[C@H]1C[C@@H](Nc2nc(-c3nccn3C)nc3sc(-c4ccn(C)n4)c(-c4ccccc4)c23)C1.Cl,–,–,–,–,–,–,–,–,D (76-100% inhibition),C (51-75% inhibition),D (76-100% inhibition),C (51-75% inhibition),D (76-100% inhibition),C (51-75% inhibition),51 to 75%,26 to 50%
Cn1ccc(-c2sc3nc(-c4nccn4C)nc(N[C@@H]4CC[C@H](O)C4)c3c2-c2ccccc2)n1 (racemic) [drawing 909],–,–,–,–,–,–,–,–,A (1-25% inhibition),A (1-25% inhibition),0 (0% inhibition),A (1-25% inhibition),A (1-25% inhibition),A (1-25% inhibition),0%,0%
COc1nc(-c2ccccn2)nc(Nc2cnn(C)c2)c1OC [drawing 794],A (1-25% inhibition),0 (0% inhibition),A (1-25% inhibition),0 (0% inhibition),0 (0% inhibition),A (1-25% inhibition),0%,0%,–,–,–,–,–,–,–,–
COCCNc1nc(-c2cn(C)cn2)nc2sc(-c3cc(OC)ccc3Cl)c(-c3ccc(OC)cc3)c12 [drawing 795],D (76-100% inhibition),B (26-50% inhibition),D (76-100% inhibition),B (26-50% inhibition),D (76-100% inhibition),B (26-50% inhibition),26 to 50%,26 to 50%,–,–,–,–,–,–,–,–
COC1CCN(c2nc(-c3nccn3C)nn3cc(-c4ccccc4)c(-c4ccccc4)c23)C1 (stereo not shown) [drawing 796],B (26-50% inhibition),A (1-25% inhibition),B (26-50% inhibition),B (26-50% inhibition),A (1-25% inhibition),B (26-50% inhibition),1 to 25%,26 to 50%,–,–,–,–,–,–,–,–
COCCNc1nc(-c2cn(C)cn2)nc2sc(-c3cccc(OC)c3Cl)c(-c3ccc(OC)cc3)c12 [drawing 797],D (76-100% inhibition),B (26-50% inhibition),D (76-100% inhibition),C (51-75% inhibition),D (76-100% inhibition),C (51-75% inhibition),26 to 50%,26 to 50%,–,–,–,–,–,–,–,–

# Next, values leading:
KRas G12C mutant + SOS: % inh. (KRas G12C mutant; with SOS),KRas G12C mutant: % inh. (KRas G12C mutant; without SOS),KRas Q61H mutant + SOS: % inh. (KRas Q61H mutant; with SOS),KRas Q61H mutant: % inh. (KRas Q61H mutant; without SOS),KRas wild type + SOS: % inh. (KRas wild type; with SOS),KRas wild type: % inh. (KRas wild type),inhibition at 20 µM (KRas G12D mutant; [1]),inhibition at 20 µM (KRas G12D mutant; [2]),KRas G12C mutant + SOS: % inh. (KRas G12C mutant; with SOS (Table 7A)),KRas G12C mutant: % inh. (KRas G12C mutant; without SOS (Table 7A)),KRas Q61H mutant + SOS: % inh. (KRas Q61H mutant; with SOS (Table 7A)),KRas Q61H mutant: % inh. (KRas Q61H mutant; without SOS (Table 7A)),KRas wild type + SOS: % inh. (KRas wild type; with SOS (Table 7A)),KRas wild type % inh. (KRas wild type),inhibition at 20 µM (KRas G12D mutant; [3]),inhibition at 20 µM (KRas G12D mutant; [4]),Structure (SMILES)
D (76-100% inhibition),A (1-25% inhibition),D (76-100% inhibition),B (26-50% inhibition),D (76-100% inhibition),B (26-50% inhibition),51 to 75%,51 to 75%,–,–,–,–,–,–,–,–,COC1CCN(c2nc(-c3nccn3C)nc3sc(-c4ccccc4CO)c(-c4ccccc4)c23)C1.Cl (stereo not shown)
A (1-25% inhibition),A (1-25% inhibition),A (1-25% inhibition),A (1-25% inhibition),A (1-25% inhibition),A (1-25% inhibition),1 to 25%,1 to 25%,–,–,–,–,–,–,–,–,COC1CCN(c2nc(-c3nccn3C)nc3sc(-c4ccc(N)nc4C)c(-c4ccccc4)c23)C1.Cl (stereo not shown)
B (26-50% inhibition),B (26-50% inhibition),B (26-50% inhibition),A (1-25% inhibition),A (1-25% inhibition),B (26-50% inhibition),26 to 50%,26 to 50%,–,–,–,–,–,–,–,–,COC1CCN(c2nc(-c3nccn3C)nc3sc(-c4ccncc4C)c(-c4ccccc4)c23)C1.Cl (stereo not shown)
D (76-100% inhibition),0 (0% inhibition),D (76-100% inhibition),B (26-50% inhibition),D (76-100% inhibition),A (1-25% inhibition),51 to 75%,26 to 50%,–,–,–,–,–,–,–,–,COc1ccc(-c2sc3nc(-c4nccn4C)nc(N4CCC(OC)C4)c3c2-c2ccccc2)cn1.Cl (stereo not shown)
D (76-100% inhibition),C (51-75% inhibition),C (51-75% inhibition),C (51-75% inhibition),C (51-75% inhibition),C (51-75% inhibition),51 to 75%,51 to 75%,–,–,–,–,–,–,–,–,COc1cc(-c2sc3nc(-c4nccn4C)nc(N4CCC(OC)C4)c3c2-c2ccccc2)ccn1.Cl (stereo not shown)
A (1-25% inhibition),A (1-25% inhibition),A (1-25% inhibition),0 (0% inhibition),A (1-25% inhibition),0 (0% inhibition),1 to 25%,1 to 25%,–,–,–,–,–,–,–,–,COCCn1cc(Nc2nc(-c3ccccn3)nc(OC)c2OC)cn1 [drawing 793]
